From US11890356B2 (The General Hospital Corporation, priority 2017, dated 2024) come the findings set out here.

What is called IC50 is the point on the concentration scale where inhibition reaches its midpoint.

The test system of data set [1] is acetylation state of α-Tubulin and histones (H3K9 and H4K12). Kind of data set: Acetylation level assay (Western blot) in human iPSC-derived neural progenitor cells. Type of data set: cell-based. To be noted: ACY1215 5 μM, other compounds 10 μM; 6 h at 37° C. For orientation: In western blotting, separated proteins are transferred to a membrane and probed.
Data set [2] concerns the target T1, HDAC6 (Rattus norvegicus (Rat), UniProt A0A8I6GM68). Put plainly: PET/CT imaging in rats with radiolabeled Example 2. Type of data set: in vivo, Sprague-Dawley rats. The protocol: 8 male Sprague-Dawley rats (Charles River Laboratories) were used for PET imaging. […] For intravenous administration, a catheter with an extension line was placed in a lateral tail vein. Each animal received a bolus injection of either vehicle (1:1:8 DMSO/Tween80/saline) or blocking agent in solution (1 mg/kg, 1 mg/mL in 1:1:8 DMSO/Tween80/saline) immediately prior to injection of the radiotracer.
After injection of a radiotracer bolus (˜700 ρCi Example 2) a 90 min dynamic PET scan was acquired in pairs for all animals. PET scans were performed on a GammaMedica Triumph PET/CT/SPECT scanner, corrected for attenuation with a μ-map derived from the corresponding CT image, which was acquired immediately following the PET scan. The dynamic PET data was binned into 38 timeframes (8×15 s, 8×1 min, 10×2 min, 12×5) and reconstructed individually via an iterative MLEM (maximum likelihood expectation maximization) algorithm in 16 iterations.
PET images were coregistered to the CT image acquired from the same animal using AMIDE Data sets were cropped and all further image analysis was conducted using PMOD 3.3 (PMOD Technologies, Zurich, Switzerland). For maximum consistency, the data were coregistered to the Schiffer Px Rat rat brain template and data was derived from a whole brain VOI (volumes of interest) for time activity curves.

Another data set in a line: Hepatocyte stability. To be noted: hu.
Data set [3] addresses T1, HDAC6. Put plainly: Autoradiography competition with radiolabeled Example 2 on rat brain slices. Type of data set: binding, Sprague-Dawley rat. The protocol:
Sagittal slices of Sprague-Dawley rat brains were sectioned (10 μm) with a cryostat (Thermo Scientific HM550) and mounted onto ColorFrost Plus microscope slides (Fisher Scientific 12-550-18) and stored at −20° C. […] After 15 min, 50 μCi of the radiolabeled compound of Example 2 was added to each bath. After 15 minutes, all slides were washed by dipping 10× into buffer and subsequently submerged in 50 mL baths of buffer at 4° C. for 5 minutes. The slides were dried at 35° C. in a vacuum chamber. A phosphorus screen (Perkin Elmer 7001723) was exposed with the slides for 45 minutes and subsequently imaged with a Cyclone Plus Storage Phosphor (Perkin Elmer) detector. ImageJ was used to apply a Gaussian blur (3.0 radius) smoothing and a lookup table (Royal) with equivalent thresholds for brightness was applied. Raw intensity values from gray and white matter were quantified with the ImageJ measurement tool.

The nature of the next data set: Microsome stability. To be noted: hu.
Data set [4] deals with HDAC6 (Homo sapiens (Human), UniProt Q9UBN7). Kind of data set: HDAC IC50 assay by Nanosyn (Caliper microfluidics mobility shift detection). Type of data set: biochemical.
Chain of HDAC6 (Homo sapiens (Human), UniProt Q9UBN7) (Q9UBN7 whole entry): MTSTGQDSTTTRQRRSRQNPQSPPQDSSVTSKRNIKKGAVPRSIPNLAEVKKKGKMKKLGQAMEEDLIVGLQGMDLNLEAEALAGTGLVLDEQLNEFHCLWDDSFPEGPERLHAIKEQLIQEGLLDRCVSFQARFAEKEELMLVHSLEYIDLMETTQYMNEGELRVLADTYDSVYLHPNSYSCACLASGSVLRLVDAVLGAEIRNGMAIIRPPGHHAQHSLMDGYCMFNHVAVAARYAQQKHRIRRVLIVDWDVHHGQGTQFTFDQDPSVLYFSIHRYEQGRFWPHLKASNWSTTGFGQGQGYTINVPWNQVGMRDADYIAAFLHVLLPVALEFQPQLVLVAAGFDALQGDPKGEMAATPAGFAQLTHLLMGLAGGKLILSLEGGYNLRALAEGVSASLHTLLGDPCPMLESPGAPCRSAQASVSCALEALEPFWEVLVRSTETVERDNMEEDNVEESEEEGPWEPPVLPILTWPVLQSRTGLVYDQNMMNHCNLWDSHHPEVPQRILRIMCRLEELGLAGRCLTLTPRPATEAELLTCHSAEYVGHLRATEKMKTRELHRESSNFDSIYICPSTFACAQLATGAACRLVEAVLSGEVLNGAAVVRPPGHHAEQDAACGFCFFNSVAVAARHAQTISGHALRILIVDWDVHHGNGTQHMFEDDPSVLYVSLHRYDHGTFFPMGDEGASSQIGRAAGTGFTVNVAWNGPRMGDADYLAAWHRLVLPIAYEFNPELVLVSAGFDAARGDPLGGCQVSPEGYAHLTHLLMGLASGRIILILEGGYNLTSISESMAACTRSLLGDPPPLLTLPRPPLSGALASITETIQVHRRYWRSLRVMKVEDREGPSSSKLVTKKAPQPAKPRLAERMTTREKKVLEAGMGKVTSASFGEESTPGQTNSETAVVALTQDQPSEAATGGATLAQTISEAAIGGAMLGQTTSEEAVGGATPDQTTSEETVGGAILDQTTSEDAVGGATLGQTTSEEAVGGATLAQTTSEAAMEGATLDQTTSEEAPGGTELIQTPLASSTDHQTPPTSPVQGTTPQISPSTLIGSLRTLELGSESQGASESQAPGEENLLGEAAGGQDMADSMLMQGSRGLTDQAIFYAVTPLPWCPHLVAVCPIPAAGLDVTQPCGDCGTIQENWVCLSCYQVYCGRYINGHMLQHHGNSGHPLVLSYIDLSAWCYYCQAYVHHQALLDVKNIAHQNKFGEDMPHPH

T1 sequence (A0A8I6GM68 whole entry): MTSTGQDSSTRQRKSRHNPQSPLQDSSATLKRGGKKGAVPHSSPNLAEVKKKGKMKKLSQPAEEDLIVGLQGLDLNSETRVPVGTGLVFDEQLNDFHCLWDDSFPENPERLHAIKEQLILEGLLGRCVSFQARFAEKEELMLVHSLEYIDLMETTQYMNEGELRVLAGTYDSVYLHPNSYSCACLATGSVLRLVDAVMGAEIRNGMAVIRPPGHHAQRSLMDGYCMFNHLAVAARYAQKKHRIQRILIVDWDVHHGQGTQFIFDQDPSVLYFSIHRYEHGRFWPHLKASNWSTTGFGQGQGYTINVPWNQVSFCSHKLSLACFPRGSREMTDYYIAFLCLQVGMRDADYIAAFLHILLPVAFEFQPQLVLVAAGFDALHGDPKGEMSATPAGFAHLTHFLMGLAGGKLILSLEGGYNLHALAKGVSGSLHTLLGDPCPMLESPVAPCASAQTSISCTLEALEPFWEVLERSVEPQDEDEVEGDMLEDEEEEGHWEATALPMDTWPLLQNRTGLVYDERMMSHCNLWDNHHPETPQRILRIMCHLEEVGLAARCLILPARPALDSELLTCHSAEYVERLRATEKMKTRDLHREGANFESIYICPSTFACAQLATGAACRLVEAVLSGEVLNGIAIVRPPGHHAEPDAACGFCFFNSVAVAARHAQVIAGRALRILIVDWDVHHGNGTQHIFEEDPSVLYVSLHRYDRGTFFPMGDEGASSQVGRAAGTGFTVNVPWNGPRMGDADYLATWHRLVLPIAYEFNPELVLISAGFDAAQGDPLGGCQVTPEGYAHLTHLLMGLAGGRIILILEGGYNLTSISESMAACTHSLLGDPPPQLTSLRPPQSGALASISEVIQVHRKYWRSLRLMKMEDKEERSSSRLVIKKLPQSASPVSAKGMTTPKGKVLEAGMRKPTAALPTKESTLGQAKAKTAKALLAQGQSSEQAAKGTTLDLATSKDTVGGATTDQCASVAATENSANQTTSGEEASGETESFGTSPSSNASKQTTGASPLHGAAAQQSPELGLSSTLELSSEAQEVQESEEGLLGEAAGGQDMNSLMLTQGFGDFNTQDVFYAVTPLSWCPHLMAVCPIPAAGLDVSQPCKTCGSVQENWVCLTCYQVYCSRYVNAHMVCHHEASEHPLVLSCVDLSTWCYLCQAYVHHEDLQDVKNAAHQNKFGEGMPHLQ

With `O=C(CCCCCCNC(=O)c1cnc(N(c2ccccc2)c2ccccc2)nc1)NO` [ACY-1215, ricolinostat], in data set [1], the “Histone acetylation on H4K12” value is reported as “significantly increased” and the “amount of cellular acetyl-α-Tubulin” value is “increased”.

With `CC(=O)Nc1ccc(C(=O)Nc2ccccc2N)cc1` [CI-994, tacedinaline], in data set [1], the “Histone acetylation on H3K9” value is recorded as “significantly increased”, the “Histone acetylation on H4K12” value was “significantly increased” and the “amount of cellular acetyl-α-Tubulin” value was “did not increase”.

For the compound `CN(Cc1ccc(C(=O)NO)cc1F)CC12CC3CC(CC(C3)C1)C2` [Example 1, 4-(((((3s)-Adamantan-1-yl)methyl)(methyl)amino)methyl)-3-fluoro-N-hydroxybenzamide], at HDAC6 [2] (1 mg/kg immediately prior to radiotracer), the “effect of pretreatment on brain uptake of radiolabeled Example 2” value was “blocking of brain uptake”. Moreover, the “effect on time activity curve of radiolabeled Example 2” value at HDAC6 [2] (1 mg/kg, 30-minutes post radiotracer administration) is recorded as “clear deflection of the time activity curve”. In addition, in “Hepatocyte stability”, the “Hepatocyte stability (half-life, min)” value is 20 (hu) min. Further, the “binding of radiolabeled Example 2 to rat brain slices in presence of competitor” value on HDAC6 [3] (competitor at 1 μM) is “significantly reduced”. Also, the “Microsome stability (half-life, min)” value in “Microsome stability” is 19 min. Besides, in data set [1], the “Histone acetylation on H3K9” value is reported as “remained unaltered”, the “Histone acetylation on H4K12” value is reported as “remained unaltered” and the “amount of cellular acetyl-α-Tubulin” value is reported as “increased”.

On to `CN(Cc1ccc(C(=O)NO)cc1[18F])CC12CC3CC(CC(C3)C1)C2` [Example 2, 4-((((Adamantan-1-yl)methyl)(methyl)amino)methyl)-3-[^18F]fluoro-N-hydroxybenzamide], for which, on HDAC6 [2] (PET, radiotracer iv bolus), the “brain uptake and retention” value is reported as “excellent”. For the same compound, the “off-rate in preclinical PET” value on HDAC6 [2] (rat, in vivo) was “slow”.

As to `CC(CC12CC3CC(CC(C3)C1)C2)N(C)Cc1ccc(C(=O)NO)cc1` (centres unmarked) [Example 20], at HDAC6 [4], the IC50 is 290 nM.

Consider `CN1CCc2c(c3ccccc3n2Cc2ccc(C(=O)NO)cc2)C1` [Tubastatin A], for which, at HDAC6 [3] (competitor at final concentration of 100 μM), the “binding of radiolabeled Example 2 to rat brain slices in presence of competitor” value is given as “reduce the amount of bound radioactivity to the same background as 10 μM Example 1”. Also, in data set [1], the “Histone acetylation on H3K9” value is “remained unaltered”, the “Histone acetylation on H4K12” value is listed as “remained unaltered” and the “amount of cellular acetyl-α-Tubulin” value was “increased”.
